Measured values as given in ChEMBL document CHEMBL5370648, “Rational Design of Bioorthogonally Activatable PROTAC for Tumor-Targeted Protein Degradation” (J Med Chem, 2023).
The source made the active and inactive calls. No cut-off for these calls is given here.

How the values were obtained:
[1] = molecular target: T1, von Hippel-Lindau disease tumor suppressor/Bromodomain-containing protein 4 (Homo sapiens, UniProt O60885+P40337); assay: PROTAC activity at BRD4/VHL E3 ligase in 12 hrs BODIPY-TZ treated human T47D cells assessed as reduction in BRD4 expression at upto 2.0 uM incubated for 48 hrs by Western blot analysis; assay type: cell-based
[2] = molecular target: T1, von Hippel-Lindau disease tumor suppressor/Bromodomain-containing protein 4; assay: PROTAC activity at BRD4/VHL E3 ligase in 12 hrs BODIPY-TZ treated human T47D cells assessed as induction of degradation of BRD4 at upto 1000 nM incubated for 48 hrs in presence of MLN4924 by immunofluorescence staining assay; assay type: cell-based
MDA-MB-231 [3] = assay: Cytotoxicity against 12 hrs BODIPY-TZ treated human MDA-MB-231 cells assessed as inhbition of cell growth measured after 48 hrs by CCK-8 method; assay type: functional, cell-based
[4] = molecular target: T1, von Hippel-Lindau disease tumor suppressor/Bromodomain-containing protein 4; assay: PROTAC activity at BRD4/VHL E3 ligase in human T47D cells assessed as decrease in BRD4 expression at upto 2.0 uM incubated for 48 hrs by Western blot analysis; assay type: cell-based
[5] = molecular target: T1, von Hippel-Lindau disease tumor suppressor/Bromodomain-containing protein 4; assay: PROTAC activity at BRD4/VHL E3 ligase in 12 hrs BODIPY-TZ treated human MCF7 cells assessed as degradation of BRD4 expression incubated for 48 hrs by Western blot analysis; assay type: cell-based
[6] = molecular target: T1, von Hippel-Lindau disease tumor suppressor/Bromodomain-containing protein 4; assay: PROTAC activity at BRD4/VHL E3 ligase in 12 hrs BODIPY-TZ treated human T47D cells assessed as induction of degradation of BRD4 at upto 1000 nM incubated for 48 hrs in presence of MG132 by immunofluorescence staining assay; assay type: cell-based
[7] = molecular target: T1, von Hippel-Lindau disease tumor suppressor/Bromodomain-containing protein 4; assay: PROTAC activity at BRD4/VHL E3 ligase in 12 hrs BODIPY-TZ treated human MDA-MB-231 cells assessed as degradation of BRD4 expression incubated for 48 hrs by Western blot analysis; assay type: cell-based
[8] = Drug uptake in 12 hrs BODIPY-TZ treated human […] cells assessed as strong fluorescence at 600 nM measured after 30 mins by fluorescence microscopy analysis; assay type: ADME, cell-based; settings: t47d, 0.5 h, 0.6 µM
MCF7 [9] = assay: Antitumor activity against IR808-TZ treated human MCF7 cells xenografted in BALB/c nude mouse assessed as tumor growth inhibition at 20 mg/kg measured after 16 days; assay type: functional, organism-based; settings: time 16.0 day
[10] = molecular target: T1, von Hippel-Lindau disease tumor suppressor/Bromodomain-containing protein 4; assay: PROTAC activity at BRD4/VHL E3 ligase in 12 hrs BODIPY-TZ treated human MCF7 cells assessed as reduction in BRD4 expression at upto 2.0 uM incubated for 48 hrs by Western blot analysis; assay type: cell-based
[11] = molecular target: T1, von Hippel-Lindau disease tumor suppressor/Bromodomain-containing protein 4; assay: In vivo PROTAC activity at BRD4/VHL E3 ligase in BALB/c nude mouse xenografted with human MCF7 cells assessed as reduction in BRD4 protein level in tumor 20 mg/kg measured after 48 hrs by Western blot analysis; assay type: functional, organism-based
[12] = molecular target: T2, von Hippel-Lindau disease tumor suppressor/Bromodomain-containing protein 3 (Homo sapiens) (UniProt Q15059+P40337); assay: PROTAC activity at BRD3/VHL E3 ligase in 12 hrs BODIPY-TZ treated human T47D cells assessed as reduction in BRD3 expression at upto 2.0 uM incubated for 48 hrs by Western blot analysis; assay type: cell-based
MCF7 [13] = assay: Antitumor activity against human MCF7 cells xenografted in BALB/c nude mouse assessed as apoptosis at 20 mg/kg measured after 48 hrs by Western blot analysis; assay type: functional, organism-based
MCF7 [14] = assay: Cytotoxicity against 12 hrs BODIPY-TZ treated human MCF7 cells assessed as inhbition of cell growth measured after 48 hrs by CCK-8 method; assay type: functional, cell-based
MCF7 [15] = assay: Antitumor activity against IR808-TZ treated human MCF7 cells xenografted in BALB/c nude mouse model assessed as inhibition of tumor cell proliferation by measuring reduction in Ki67 staining at 20 mg/kg administered for 16 days by immunohistochemical analysis; assay type: functional, organism-based; settings: time 16.0 day
T47D = assay: Cytotoxicity against human T47D cells assessed as inhbition of cell growth measured after 48 hrs by CCK-8 method; assay type: functional, cell-based
[16] = Retention time of the compound by HPLC method; assay type: physicochemical
MCF7 [17] = assay: Cytotoxicity against human MCF7 cells assessed as inhbition of cell growth measured after 48 hrs by CCK-8 method; assay type: functional, cell-based; settings: MCF7, 48 h
[18] = Toxicity in BALB/c nude mouse assessed as animal death at 10 mg/kg measured after 16 days in presence of IR808-TZ; assay type: organism-based; settings: in vivo, 384 h, time 16 day
[19] = molecular target: T1, von Hippel-Lindau disease tumor suppressor/Bromodomain-containing protein 4; assay: PROTAC activity at BRD4/VHL E3 ligase in 12 hrs BODIPY-TZ treated human MCF7 cells assessed as suppression of c-Myc expression incubated for 48 hrs by Western blot analysis; assay type: cell-based
[20] = molecular target: T1, von Hippel-Lindau disease tumor suppressor/Bromodomain-containing protein 4; assay: PROTAC activity at BRD4/VHL E3 ligase in human T47D cells assessed as induction of degradation of intracellular BRD4 at 200 nM incubated for 48 hrs by immunofluorescence staining assay; assay type: cell-based
[21] = molecular target: T2, von Hippel-Lindau disease tumor suppressor/Bromodomain-containing protein 3 (Homo sapiens); assay: PROTAC activity at BRD3/VHL E3 ligase in 12 hrs BODIPY-TZ treated human MDA-MB-231 cells assessed as reduction in […] expression at upto 2.0 uM incubated for 48 hrs by Western blot analysis; assay type: cell-based
[22] = molecular target: T1, von Hippel-Lindau disease tumor suppressor/Bromodomain-containing protein 4; assay: In vivo PROTAC activity at BRD4/VHL E3 ligase in BALB/c nude mouse xenografted with human MCF7 cells assessed as reduction in BRD4 protein level in tumor 10 mg/kg measured after 48 hrs in presence of IR808-TZ by Western blot analysis; assay type: functional, organism-based
[23] = molecular target: T1, von Hippel-Lindau disease tumor suppressor/Bromodomain-containing protein 4; assay: PROTAC activity at BRD4/VHL E3 ligase in human MCF7 cells assessed as decrease in BRD4 expression at upto 2.0 uM incubated for 48 hrs by Western blot analysis; assay type: cell-based
[24] = molecular target: T1, von Hippel-Lindau disease tumor suppressor/Bromodomain-containing protein 4; assay: PROTAC activity at BRD4/VHL E3 ligase in human MDA-MB-231 cells assessed as decrease in BRD4 expression at upto 2.0 uM incubated for 48 hrs by Western blot analysis; assay type: cell-based
MDA-MB-231 [25] = assay: Cytotoxicity against human MDA-MB-231 cells assessed as inhbition of cell growth measured after 48 hrs by CCK-8 method; assay type: functional, cell-based; settings: MDA-MB-231, 48 h
[26] = molecular target: T1, von Hippel-Lindau disease tumor suppressor/Bromodomain-containing protein 4; assay: PROTAC activity at BRD4/VHL E3 ligase in 12 hrs BODIPY-TZ treated human T47D cells assessed as activation of caspase-3 expression incubated for 48 hrs by Western blot analysis; assay type: cell-based
[27] = molecular target: T1, von Hippel-Lindau disease tumor suppressor/Bromodomain-containing protein 4; assay: PROTAC activity at BRD4/VHL E3 ligase in 12 hrs BODIPY-TZ treated human T47D cells assessed as suppression of c-Myc expression incubated for 48 hrs by Western blot analysis; assay type: cell-based
[28] = molecular target: T1, von Hippel-Lindau disease tumor suppressor/Bromodomain-containing protein 4; assay: PROTAC activity at BRD4/VHL E3 ligase in 12 hrs BODIPY-TZ treated human MDA-MB-231 cells assessed as activation of caspase-3 expression incubated for 48 hrs by Western blot analysis; assay type: cell-based
MCF7 [29] = assay: Antitumor activity against IR808-TZ treated human MCF7 cells xenografted in BALB/c nude mouse assessed as fold increase in tumor volume at 20 mg/kg measured at day 23 post injection; assay type: functional; settings: time 23 day
MCF7 [30] = assay: Antitumor activity against human MCF7 cells xenografted in BALB/c nude mouse assessed as apoptosis at 20 mg/kg measured after 48 hrs in presence of IR808-TZ by Western blot analysis; assay type: functional, organism-based

T1 sequence (P40337 whole entry, looked up, other chains not shown): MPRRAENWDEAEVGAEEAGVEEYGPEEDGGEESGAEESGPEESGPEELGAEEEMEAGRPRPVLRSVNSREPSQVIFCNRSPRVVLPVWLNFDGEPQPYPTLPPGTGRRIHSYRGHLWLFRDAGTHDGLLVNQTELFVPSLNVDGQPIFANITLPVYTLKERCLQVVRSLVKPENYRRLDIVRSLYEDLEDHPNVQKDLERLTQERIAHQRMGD
T2 sequence (P40337 whole entry partner): as the sequence (P40337 whole entry, looked up, other chains not shown) above
T2 sequence (Q15059 2-726 limits assumed): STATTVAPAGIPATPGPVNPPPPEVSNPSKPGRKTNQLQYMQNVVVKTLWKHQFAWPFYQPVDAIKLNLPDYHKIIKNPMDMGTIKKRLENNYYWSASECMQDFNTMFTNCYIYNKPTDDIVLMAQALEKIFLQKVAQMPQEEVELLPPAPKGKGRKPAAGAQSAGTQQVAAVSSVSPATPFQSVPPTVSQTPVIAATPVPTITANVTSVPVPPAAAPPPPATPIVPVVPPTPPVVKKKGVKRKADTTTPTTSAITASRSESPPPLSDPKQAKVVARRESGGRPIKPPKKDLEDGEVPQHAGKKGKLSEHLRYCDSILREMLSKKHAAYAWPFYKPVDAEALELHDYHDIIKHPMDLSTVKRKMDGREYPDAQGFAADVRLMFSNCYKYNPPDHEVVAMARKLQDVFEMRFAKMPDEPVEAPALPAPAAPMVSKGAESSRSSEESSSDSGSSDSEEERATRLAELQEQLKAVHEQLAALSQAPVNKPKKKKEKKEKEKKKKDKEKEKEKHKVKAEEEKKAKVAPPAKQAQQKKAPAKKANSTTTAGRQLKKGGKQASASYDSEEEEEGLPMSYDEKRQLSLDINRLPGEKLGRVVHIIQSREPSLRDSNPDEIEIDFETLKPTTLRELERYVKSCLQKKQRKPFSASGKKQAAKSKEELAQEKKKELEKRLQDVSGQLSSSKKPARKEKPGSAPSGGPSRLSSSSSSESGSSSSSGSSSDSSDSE

CC1=CC(C)=[N+]2C1=C(c1cccc(-c3nnc(C)nn3)c1)c1c(C)cc(C)n1[B-]2(F)F
Activity [1]: Active | Activity [2]: inactive | IC50 (MDA-MB-231 [3]): 326 nM | Activity [4]: inactive | Activity [5]: Active | Activity [6]: inactive | Activity [7]: Active | Drug uptake [8]: Active | Activity (MCF7 [9]): Active | Activity [10]: Active | Activity [11]: inactive | Activity [12]: Active | Activity (MCF7 [13]): inactive | IC50 (MCF7 [14]): 264 nM | Activity (MCF7 [15]): Active | IC50 (T47D): 1760 nM | Retention_time [16]: 19.92 min | IC50 (MCF7 [17]): 1320 nM | Activity [18]: Toxic | Activity [19]: Active | Activity [20]: inactive | Activity [21]: Active | Activity [22]: Active | Activity [23]: inactive | Activity [24]: inactive | IC50 (MDA-MB-231 [25]): 652 nM | Activity [26]: Active | Activity [27]: Active | Activity [28]: Active | fold change (FC) (MCF7 [29]): 1.74 | Activity (MCF7 [30]): Active
